Reference: ChEMBL document CHEMBL4346687, “Design, synthesis and biological evaluation of novel uracil derivatives bearing 1, 2, 3-triazole moiety as thymidylate synthase (TS) inhibitors and as potential antitumor drugs” (Eur J Med Chem, 2019)
Active and inactive are the calls of the source. The rule behind the calls is not given here.

How the values were obtained:
A549 [1] = experiment: Induction of apoptosis in human A549 cells assessed as increase in cleaved caspase-3 protein level at 0.5 to 1.5 uM after 24 hrs by Western blot analysis; format: functional, cell-based
A549 [2] = experiment: Induction of apoptosis in human A549 cells assessed as activation of caspase-3 protein level at 0.5 to 1.5 uM after 24 hrs by Western blot analysis; format: functional, cell-based
A549 [3] = experiment: Induction of apoptosis in human A549 cells assessed as necrotic cells at 1.5 uM after 24 hrs by Annexin V-FITC/propidium iodide staining based flow cytometric analysis (reference value: 0.1%); format: functional
A549 [4] = experiment: Antiproliferative activity against human A549 cells assessed as reduction in cell viability at 1.25 uM after 24 hrs by MTT assay; format: functional; conditions: A549, 24 h
A549 [5] = experiment: Cell cycle arrest in human A549 cells assessed as increase in G0/G1 phase at 0.5 to 1.5 uM after 24 hrs by propidium iodide staining based flow cytometric analysis; format: functional
A549 [6] = experiment: Induction of apoptosis in human A549 cells assessed as early apoptotic cells at 1 uM after 24 hrs by Annexin V-FITC/propidium iodide staining based flow cytometric analysis (reference value: 0.6%); format: functional
OVCAR-3 = experiment: cells; conditions: Homo sapiens, OVCAR-3, 24 h
Description: Antiproliferative activity against human OVCAR3 cells assessed as reduction in cell viability after 24 hrs by MTT assay

A549 [7] = experiment: Antiproliferative activity against human A549 cells assessed as reduction in cell viability at 0.625 uM after 24 hrs by MTT assay; format: functional; conditions: A549, 24 h
A549 [8] = experiment: Antiproliferative activity against human A549 cells assessed as reduction in cell viability at 5 uM after 24 hrs by MTT assay; format: functional; conditions: A549, 24 h
A549 [9] = experiment: Induction of apoptosis in human A549 cells assessed as early apoptotic cells at 0.5 uM after 24 hrs by Annexin V-FITC/propidium iodide staining based flow cytometric analysis (reference value: 0.6%); format: functional
A549 [10] = experiment: Cell cycle arrest in human A549 cells assessed as decrease in S phase at 0.5 to 1.5 uM after 24 hrs by propidium iodide staining based flow cytometric analysis; format: functional
[11] = Cytotoxicity against human L02 cells assessed as reduction in cell viability after 24 hrs by MTT assay; format: cell-based; conditions: L02 cells
A549 [12] = experiment: Cell cycle arrest in human A549 cells assessed as decrease in G2/M phase at 0.5 to 1.5 uM after 24 hrs by propidium iodide staining based flow cytometric analysis; format: functional
A549 [13] = experiment: cells; conditions: Homo sapiens, A549, 24 h
Description: Antiproliferative activity against human A549 cells assessed as reduction in cell viability after 24 hrs by MTT assay

A549 [14] = experiment: Induction of apoptosis in human A549 cells assessed as down regulation of Bcl-2 protein expression at 0.5 to 1.5 uM after 24 hrs by Western blot analysis; format: functional, cell-based
A549 [15] = experiment: Induction of late apoptosis in human A549 cells after 24 hrs by Annexin V-FITC/propidium iodide staining based flow cytometric analysis; format: functional, cell-based
[16] = Cytotoxicity against human GES-1 cells assessed as reduction in cell viability after 24 hrs by MTT assay; format: cell-based, GES1; conditions: GES-1 cells
A549 [17] = experiment: Induction of apoptosis in human A549 cells assessed as viable cells at 0.5 uM after 24 hrs by Annexin V-FITC/propidium iodide staining based flow cytometric analysis (reference value: 98.2%); format: functional; conditions: A549, 24 h, read-out: Activity
A549 [18] = experiment: Cell cycle arrest in human A549 cells assessed as decrease in Cyclin D protein expression at 0.5 to 1.5 uM after 24 hrs by Western blot analysis; format: functional, cell-based
A549 [19] = experiment: Induction of apoptosis in human A549 cells assessed as viable cells at 1.5 uM after 24 hrs by Annexin V-FITC/propidium iodide staining based flow cytometric analysis (reference value: 98.2%); format: functional; conditions: A549, 24 h, read-out: Activity
A549 [20] = experiment: Induction of apoptosis in human A549 cells assessed as necrotic cells at 1 uM after 24 hrs by Annexin V-FITC/propidium iodide staining based flow cytometric analysis (reference value: 0.1%); format: functional
A549 [21] = experiment: Induction of apoptosis in human A549 cells assessed as up regulation of Bax protein expression at 0.5 to 1.5 uM after 24 hrs by Western blot analysis; format: functional, cell-based
A549 [22] = experiment: Antiproliferative activity against human A549 cells assessed as reduction in cell viability at 20 uM after 24 hrs by MTT assay; format: functional; conditions: A549, 24 h
A549 [23] = experiment: Cell cycle arrest in human A549 cells assessed as decrease in Cyclin E protein expression at 0.5 to 1.5 uM after 24 hrs by Western blot analysis; format: functional, cell-based
A549 [24] = experiment: Induction of apoptosis in human A549 cells assessed as late apoptotic cells at 1.5 uM after 24 hrs by Annexin V-FITC/propidium iodide staining based flow cytometric analysis (reference value: 1.1%); format: functional
A549 [25] = experiment: Induction of apoptosis in human A549 cells assessed as decrease in ratio of Bcl-2/Bax at 0.5 to 1.5 uM after 24 hrs by Western blot analysis; format: functional, cell-based
HepG2 = experiment: cells; conditions: Homo sapiens, HepG2, 24 h
Description: Antiproliferative activity against human HepG2 cells assessed as reduction in cell viability after 24 hrs by MTT assay

[26] = Cytotoxicity against human HPAEpic cells assessed as reduction in cell viability after 24 hrs by MTT assay; format: cell-based; conditions: HPAEpic cells
A549 [27] = experiment: Induction of apoptosis in human A549 cells assessed as late apoptotic cells at 0.5 uM after 24 hrs by Annexin V-FITC/propidium iodide staining based flow cytometric analysis (reference value: 1.1%); format: functional
[28] = Cytotoxicity against human IOSE-80 cells assessed as reduction in cell viability after 24 hrs by MTT assay; format: cell-based; conditions: IOSE-80 cells
A549 [29] = experiment: Induction of apoptosis in human A549 cells assessed as viable cells at 1 uM after 24 hrs by Annexin V-FITC/propidium iodide staining based flow cytometric analysis (reference value: 98.2%); format: functional; conditions: A549, 24 h, read-out: Activity
A549 [30] = experiment: Induction of early apoptosis in human A549 cells after 24 hrs by Annexin V-FITC/propidium iodide staining based flow cytometric analysis; format: functional, cell-based
A549 [31] = experiment: Induction of apoptosis in human A549 cells assessed as necrotic cells at 0.5 uM after 24 hrs by Annexin V-FITC/propidium iodide staining based flow cytometric analysis (reference value: 0.1%); format: functional
A549 [32] = experiment: Antiproliferative activity against human A549 cells assessed as reduction in cell viability at 10 uM after 24 hrs by MTT assay; format: functional; conditions: A549, 24 h
A549 [33] = experiment: Induction of apoptosis in human A549 cells assessed as early apoptotic cells at 1.5 uM after 24 hrs by Annexin V-FITC/propidium iodide staining based flow cytometric analysis (reference value: 0.6%); format: functional
A549 [34] = experiment: Induction of apoptosis in human A549 cells assessed as late apoptotic cells at 1 uM after 24 hrs by Annexin V-FITC/propidium iodide staining based flow cytometric analysis (reference value: 1.1%); format: functional
SGC-7901 = experiment: cells; conditions: Homo sapiens, SGC-7901, 24 h
Description: Antiproliferative activity against human SGC7901 cells assessed as reduction in cell viability after 24 hrs by MTT assay

[35] = Selectivity index, ratio of CC50 for cytotoxicity against human L02 cells to IC50 for antiproliferative activity against human HepG2 cells; conditions: L02 cells (CC50) versus HepG2 cells (IC50)
[36] = Selectivity index, ratio of CC50 for cytotoxicity against human HPAEpic cells to IC50 for antiproliferative activity against human A549 cells; conditions: HPAEpic cells (CC50) versus A549 cells (IC50)
[37] = Selectivity index, ratio of CC50 for cytotoxicity against human GES-1 cells to IC50 for antiproliferative activity against human SGC7901 cells; conditions: GES-1 cells (CC50) versus SGC7901 cells (IC50)
Thymidylate synthase = Thymidylate synthase (Homo sapiens, UniProt P04818); experiment: Inhibition of human thymidylate synthase using dUMP as substrate by spectrophotometric method
[38] = Selectivity index, ratio of CC50 for cytotoxicity against human IOSE-80 cells to IC50 for antiproliferative activity against human OVCAR3 cells; conditions: IOSE-80 cells (CC50) versus OVCAR3 cells (IC50)

Thymidylate synthase, sequence (P04818 whole entry): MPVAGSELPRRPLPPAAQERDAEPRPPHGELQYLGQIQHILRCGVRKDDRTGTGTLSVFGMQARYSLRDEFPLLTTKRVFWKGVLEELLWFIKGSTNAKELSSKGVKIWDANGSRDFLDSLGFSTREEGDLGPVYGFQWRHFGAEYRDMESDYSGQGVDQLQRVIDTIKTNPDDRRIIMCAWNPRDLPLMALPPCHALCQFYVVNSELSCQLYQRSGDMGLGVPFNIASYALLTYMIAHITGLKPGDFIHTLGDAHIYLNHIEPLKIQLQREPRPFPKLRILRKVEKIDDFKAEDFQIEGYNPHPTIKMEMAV

In the case of O=c1[nH]cc(S(=O)(=O)Nc2ccccc2-c2cn(-c3ccc(Cl)cc3)nn2)c(=O)[nH]1, the Activity (A549 [1]) is reported as “Active”, the Activity (A549 [2]) is reported as “Active” and the Activity (A549 [3]) is reported as 4.5%. The inhibition at 1.25 µM (A549 [4]) was 55.5%, the Activity (A549 [5]) was “Dose-dependent effect” and the Activity (A549 [6]) was 3.5%. The IC50 (OVCAR-3) was 1.75 µM, the inhibition at 0.625 µM (A549 [7]) was 32% and the inhibition at 5 µM (A549 [8]) was 75.5%. For the same compound, the Activity (A549 [9]) was 1.3%, the Activity (A549 [10]) was “Dose-dependent effect” and the CC50 at 24 h [11] was 16.8 µM. The Activity (A549 [12]) was “Dose-dependent effect”, the IC50 (A549 [13]) was 1.18 µM and the Activity (A549 [14]) was “Active”. The Activity (A549 [15]) was “Dose-dependent effect”, the CC50 at 24 h [16] was 26.7 µM and the viability at 0.5 µM (A549 [17]) was 96.5%. The Activity (A549 [18]) was “Dose-dependent effect”, the viability at 1.5 µM (A549 [19]) was 84.2% and the Activity (A549 [20]) was 1.2%. For the same compound, the Activity (A549 [21]) was “Active”, the inhibition at 20 µM (A549 [22]) was 80.2% and the Activity (A549 [23]) was “Dose-dependent effect”. The Activity (A549 [24]) was 7.1%, the Activity (A549 [25]) was “Active” and the IC50 (HepG2) was 1.84 µM. It also gave a CC50 at 24 h [26] of 20.4 µM, an Activity (A549 [27]) of 2.1% and a CC50 at 24 h [28] of 16.5 µM. For the same compound, the viability at 1 µM (A549 [29]) was 89.7%, the Activity (A549 [30]) was “Dose-dependent effect” and the Activity (A549 [31]) was 0.1%. For the same compound, the inhibition at 10 µM (A549 [32]) was 77.3%, the Activity (A549 [33]) was 4.1% and the Activity (A549 [34]) was 5.6%. It also gave an IC50 (SGC-7901) of 2.7 µM.

Compound Nc1nc2[nH]cc(CCc3ccc(C(=O)N[C@@H](CCC(=O)O)C(=O)O)cc3)c2c(=O)[nH]1 [PEMETREXED DISODIUM] has an inhibition at 1.25 µM (A549 [4]) of 39.9%, an IC50 (OVCAR-3) of 4.35 µM and an inhibition at 0.625 µM (A549 [7]) of 27.2%. It also gave an inhibition at 5 µM (A549 [8]) of 47.1%, a selectivity ratio [35] of 8.23 and a CC50 at 24 h [11] of 30.7 µM. The selectivity ratio [36] was 7.71, the CC50 at 24 h [16] was 22.6 µM and the inhibition at 20 µM (A549 [22]) was 74.7%. It also gave a selectivity ratio [37] of 3.25, an IC50 (HepG2) of 3.73 µM and a CC50 at 24 h [26] of 25.4 µM. It also gave a CC50 at 24 h [28] of 15.5 µM, an IC50 (Thymidylate synthase) of 2.04 µM and an inhibition at 10 µM (A549 [32]) of 58.7%. For the same compound, the IC50 (SGC-7901) was 6.96 µM and the selectivity ratio [38] was 3.56.
